Experiments:
Format in all cases: in vivo
[1] = test system: Abutilon theophrasti (ABUTH); assay: A. Herbicidal pre-emergence efficacy, ABUTH; conditions: scored visually after about 3 weeks vs untreated controls
Summary of the method: (§1)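 Pre-emergence soil-surface spray in sandy loam pots, WP/EC in water plus 0.5% additive, 600 L/ha. Visual % damage rating after about 3 weeks in greenhouse vs. untreated; 0% = control-like, 100% = dead plants. Rates up to 1280 g/ha.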

[2] = test system: Veronica persica (VERPE); assay: A. Herbicidal pre-emergence efficacy, VERPE
Summary of the method: as §1

[3] = test system: Kochia scoparia (KCHSC); assay: B. Herbicidal post-emergence efficacy, KCHSC; conditions: for Post-emergence efficacy against KCHSC in %: rated visually after about 3 weeks; for Post-emergence efficacy against KCHSC: 1280 g/ha
Summary of the method: (§2)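 Visual percent efficacy relative to untreated controls (0% unaffected, 100% dead), scored roughly 3 weeks after foliar spraying of one-leaf-stage pot-grown plants with WP or EC preparations at application rates up to 1280 g/ha in 600 L/ha water containing 0.5% additive.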

[4] = test system: Alopecurus myosuroides (ALOMY); assay: A. Herbicidal pre-emergence efficacy, ALOMY; conditions: 1280 g/ha; scored visually after about 3 weeks vs untreated controls
Source text: Seeds of mono- and dicotyledonous weed plants were placed in plastic pots in sandy loam soil (doubly sown with one species each of mono- or dicotyledonous weed plants per pot) and covered with soil. The compounds of the invention, formulated in the form of wettable powders (WP) or as emulsion concentrates (EC), were then applied onto the surface of the covering soil as aqueous suspension or emulsion with addition of 0.5% additive at a water application rate of 600 liters per hectare (converted). After the treatment, the pots were placed in a greenhouse and kept under good growth conditions for the test plants. After about 3 weeks, the efficacy of the preparations was scored visually in comparison with untreated controls as percentages.
For example, • 100% efficacy=plants have died, • 0% efficacy=like untreated control plants.
Tables A1a to A12c below show the effects of selected compounds of the general formula (I) according to table 1 on various harmful plants at an application rate corresponding to 1280 g/ha or less, which were obtained by the experimental procedure mentioned above.

[5] = test system: Echinochloa crus-galli (ECHCG); assay: B. Herbicidal post-emergence efficacy, ECHCG; conditions: rated visually after about 3 weeks
Summary of the method: as §2

[6] = test system: Echinochloa crus-galli (ECHCG); assay: C. Herbicidal pre-emergence efficacy, ECHCG; conditions: scored after about 3 weeks
Summary of the method: (§3)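 Pre-emergence test: formulated compounds sprayed as aqueous suspension or emulsion with 0.5% additive at 600 l/ha onto soil covering sown seeds, at rates corresponding to 320 g/ha or less. After about 3 weeks in greenhouse, efficacy scored visually as percent versus untreated controls (100% = plants dead).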

[7] = test system: Amaranthus retroflexus (AMARE); assay: C. Herbicidal pre-emergence efficacy, AMARE; conditions: scored after about 3 weeks
Summary of the method: as §3

[8] = test system: Pharbitis purpurea (PHBPU); assay: E. Herbicidal post-emergence efficacy, PHBPU
Summary of the method: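 Greenhouse post-emergence spray, one-leaf stage (2–3 wk after sowing, sandy loam); WP/EC formulation, aqueous + 0.5% additive, 600 l/ha water; rates 320 g/ha or less. Visual rating ~3 wk later vs untreated; 0% = control-like, 100% = dead.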

| Compound | Pre-emergence efficacy against ABUTH ([1]; 320 g/ha) | Pre-emergence efficacy against ABUTH ([1]; 1280 g/ha) | Pre-emergence efficacy against VERPE in % ([2]; 320 g/ha) | Pre-emergence efficacy against VERPE in % ([2]; 1280 g/ha) | Post-emergence efficacy against KCHSC in % ([3]; 80 g/ha) | Post-emergence efficacy against KCHSC in % ([3]; 320 g/ha) | Post-emergence efficacy against KCHSC [3] | Pre-emergence efficacy against ALOMY [4] | Post-emergence efficacy against ECHCG in % ([5]; 1280 g/ha) | Pre-emergence efficacy against ECHCG ([6]; 80 g/ha) | Pre-emergence efficacy against ECHCG ([6]; 320 g/ha) | Pre-emergence efficacy against AMARE ([7]; 80 g/ha) | Pre-emergence efficacy against AMARE ([7]; 320 g/ha) | Post-emergence efficacy against ECHCG in % ([5]; 320 g/ha) | Post-emergence efficacy against PHBPU in % ([8]; application rate 320 g/ha) | Post-emergence efficacy against PHBPU in % ([8]; application rate 80 g/ha) |
| --- | --- | --- | --- | --- | --- | --- | --- | --- | --- | --- | --- | --- | --- | --- | --- | --- |
| O=S(=O)(CCC(F)(F)F)Oc1c(Br)cccc1Oc1ncc(Cl)cn1 [Example I-31] | 90% | 90% | 100% | 100% | 90% | 100% | 100% | 90% | 100% | – | – | – | – | – | – | – |
| CC(C)CS(=O)(=O)Oc1ccccc1Oc1ncc(Cl)cn1 [Example I-7, [2-(5-Chloropyrimidin-2-yl)oxyphenyl] 2-methylpropane-1-sulfonate] | 90% | 100% | – | 100% | – | – | 90% | – | 90% | 100% | 100% | 100% | 100% | 90% | 90% | – |
| COCCS(=O)(=O)Oc1c(F)cccc1Oc1ncc(Cl)cn1 [Example I-52] | 100% | 100% | 100% | 100% | – | – | – | – | 90% | 100% | 100% | 100% | 100% | – | – | – |
| O=S(=O)(CCC(F)=C(F)F)Oc1c(Cl)cccc1Oc1ncc(Cl)cn1 [Example I-73] | – | 90% | – | 100% | 90% | 100% | 100% | – | 100% | – | 90% | 90% | 100% | 90% | – | – |
| O=S(=O)(CCl)Oc1ccccc1Oc1ncc(Cl)cn1 [Example I-9] | – | 90% | – | 100% | – | – | 90% | – | 90% | – | 90% | 100% | 100% | – | – | – |
| O=S(=O)(CCCCl)Oc1cccc(F)c1Oc1ncc(Cl)cn1 [Example I-13] | 90% | 100% | – | 100% | – | 90% | 100% | – | 90% | – | 80% | – | 100% | – | – | – |
| N#Cc1cccc(Oc2ncc(Cl)cn2)c1OS(=O)(=O)CCCC(F)(F)F [Example I-81] | – | – | – | – | – | – | – | – | – | – | 100% | 100% | 100% | – | 100% | 90% |
| CCCCCS(=O)(=O)Oc1ccccc1Oc1ncc(Cl)cn1 [Example I-24] | – | – | – | – | 90% | 100% | 100% | – | 100% | – | 100% | 100% | 100% | – | 80% | – |
| O=S(=O)(CCCC(F)(F)F)Oc1c(Cl)cccc1Oc1ncc(Br)cn1 [Example I-34] | – | 90% | 90% | 100% | 100% | 100% | 100% | – | 90% | – | 90% | 100% | 100% | 90% | 100% | 80% |

— US20240174618A1, “SUBSTITUTED (2-HETEROARYLOXYPHENYL)SULFONATES, SALTS THEREOF AND THEIR USE AS HERBICIDAL AGENTS” (Bayer Aktiengesellschaft, priority 2021, published 2024)
